Measurements taken from patent publication US10570168B2, “2′ and/or 5′ amino-acid ester phosphoramidate 3′-deoxy adenosine derivatives as anti- cancer compounds” (NuCana plc, priority 2014, dated 2020).
Where two headings read alike, the source gives them in different places.

What was measured:
[1] = test system: CCRF-CEM (TdT positive CEM); test: ATP (ViaLight plus) cytotoxicity assay; type: cell-based, Human; details: for IC50: Homo sapiens, CCRF-CEM
Procedure: (§1) Certain compounds of the invention were subjected to further studies to test the cytotoxic activity of certain compounds of the invention and also to measure their activity against 4 haematological cancer cell lines • TdT positive CEM (Human ALL) • TdT negative K562 (Human CML) • TdT negative H1-60 (Human ANLL) • RL (CRL-2261) non-HD lymphoma • The concentrations of the active metabolite dATP (Cordycepin triphosphate) in these cell lines was also measured. • The cytotoxic activity and the intracellular 3′-dATP concentrations were also studied in the presence of hENT1, Adenosine Kinase (AK) and Adenosine Deaminase pharmacological inhibitors in CEM and RL cancer cell lines. Said inhibitors that mimic known cancer resistance mechanisms. Methods Cell Culture
(§2) HL-60 (ATCC® CCL-240™), K562 (ATCC® CCL-243™), CCRF-CEM (ATCC® CRM-CCL-119™) and RL (ATCC® CRL-2261™) leukaemia cell lines, obtained from the American Type Culture Collection (ATCC), Middlesex. HL-60 and K562 cell lines are deoxynucleotidyl transferase-negative (TdT-ve), whereas CCRF-CEM cell line is TdT+ve.
(§3) HL-60, K562, CCRF-CEM and RL cell lines were cultured in RPMI-1640 medium (Sigma Aldrich, UK), which were supplemented with 10% Fetal Bovine Serum (FBS) (PAA Laboratories), 1% amphotericin B (5.5 ml) and 1% penicillin/streptomycin (5.5 ml) (PAA Laboratories) and grown in flasks at 37° C. incubator with 5% CO2.
(§4) The amount of ATP was used as a measurement of cell number and cell viability. ATP ViaLight™ plus assay kit (Lonza, USA: Product No. LT07-121) to detect ATP in cells treated in luminescence compatible 96 well plates (initial concentration of cells was 1×10^4 cells/well) with cordycepin and ProTides at concentrations of: 0, 0.1, 0.5, 1, 5 and 10 μM, followed by incubation for 72 hours at 37° C. incubator with 5% CO2. For inhibitor studies, 10 μM of NBTI or 1 μM EHNA or A-134974 was added and left for 5 minutes before adding the drugs (see section 5 for inhibitor details).
(§5) After incubation, 50 μl of cell lysis reagent was added to the 96 well plates to release the intracellular ATP, followed by 100 μl of ATP monitoring reagent (AMR). The luminescent values of each well were determined using FLUOstar OPTIMA microplate reader (BMG Labtech) which convert ATP into light by using luciferase enzyme. Therefore, the amount of luminescence produced was directly proportional to the amount of ATP.
(§6) Cell lines were treated in the same way as described above but before treatment with drugs, a number of inhibitors were added: • 1) Nitrobenzylthioinosine (NBTI) (Sigma-Aldrich, St. Louis, Mo., product # N2255) blocks nucleoside transporters • 2) EHNA hydrochloride (Sigma-Aldrich, St. Louis, Mo., product # E114) blocks adenosine deaminase • 3) Adenosine kinase inhibitor A-134974 dihydrochloride hydrate (Sigma-Aldrich, St. Louis, Mo., product # A2846): blocks adenosine kinase
(§7) The dose-response curves of cytotoxicity of the drugs was determined using non-linear regression analysis of percentage cell viability versus concentration and EC50 values were obtained. The intracellular assay was conducted in five replicates for each condition. Intracellular assay was determined using paired t test (two-tailed) analysis of 3′ATP/ATP concentration and p-values were obtained. For all the analysis, Prism Software program (GraphPad Software) was used and Microsoft Powerpoint® 2013 was used to plot the results.

HL-60 (TdT negative) = test: ATP (ViaLight plus) cytotoxicity assay; type: cell-based, Human; details: for (FD) fold difference compared to Cordycepin = Cordycepin IC50/ProTide IC50: HL-60; for IC50: Homo sapiens
Procedure: as §1, §2, §3, §4, §5, §7

K562 (TdT negative) = test: ATP (ViaLight plus) cytotoxicity assay; type: cell-based, Human; details: for IC50: Homo sapiens
Procedure: as §1, §2, §3, §4, §5, §7

RL (CRL-2261) = test: ATP (ViaLight plus) cytotoxicity assay; type: cell-based
Procedure: as §1, §2, §3, §4, §5, §6, §7

K562 = test: Solid tumour and haematological malignancy assay (CellTiterGlo); type: cell-based; details: Homo sapiens; for IC50: read-out: IC50 (absolute IC50); for Emax: read-out: MI %
Summary of the method: (§8)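 72 hr compound treatment, duplicates, 0.5% DMSO final; readout CellTiterGlo.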

MiaPaCa-2 = test: as above; type: cell-based; details: Homo sapiens; for IC50: read-out: IC50 (absolute IC50); for Emax: read-out: MI %
Summary of the method: as §8

HT29 = test: as above; type: cell-based; details: Homo sapiens; for IC50: read-out: IC50 (absolute IC50); for Emax: read-out: MI %
Summary of the method: as §8

HEL92.1.7 = test: as above; type: cell-based; details: Homo sapiens; for IC50: read-out: IC50 (absolute IC50); for Emax: read-out: MI %
Summary of the method: as §8

MCF7 = test: as above; type: cell-based; details: Homo sapiens; for IC50: read-out: IC50 (absolute IC50); for Emax: read-out: MI %
Summary of the method: as §8

HL-60 = test: as above; type: cell-based; details: Homo sapiens; for IC50: read-out: IC50 (absolute IC50); for Emax: read-out: MI %
Summary of the method: as §8

[2] = CEM, with AK (adenosine kinase inhibitor A-134974, 1 μM)
[3] = CEM, with EHNA 1 μM (adenosine deaminase blocker)
[4] = CEM, with NBTI 10 μM (nucleoside transporter blocker)
[5] = CRL, with AK (adenosine kinase inhibitor A-134974, 1 μM)
[6] = CRL, with EHNA 1 μM (adenosine deaminase blocker)
[7] = CRL, with NBTI 10 μM (nucleoside transporter blocker)

## C[C@H](NP(=O)(OC[C@@H]1C[C@@H](O)[C@H](n2cnc3c(N)ncnc32)O1)Oc1cccc2ccccc12)C(=O)OCc1ccccc1 (stereo partly drawn) [B, (2S)-benzyl 2-(((((2S,4R,5R)-5-(6-amino-9H-purin-9-yl)-4-hydroxytetrahydrofuran-2-yl)methoxy)(naphthalen-1-yloxy)phosphoryl)amino)propanoate]
[1]; CEM, IC50 with AK inhibitor
  (FD) fold difference compared to control: (1)
[1]; CEM, IC50 with EHNA
  (FD) fold difference compared to control: (1)
[1]; CEM, IC50 with NBTI
  (FD) fold difference compared to control: (1)
[1]; 72 h, CEM (TdT+ve), 72 hours
  IC50: 0.13 µM
[1]; CEM, Control (no inhibitor)
  IC50: 0.9 µM
[1]; [2]
  IC50: 1.3 µM
[1]; [3]
  IC50: 1.3 µM
[1]; [4]
  IC50: 1.4 µM
HL-60 (TdT negative)
  (FD) fold difference compared to Cordycepin = Cordycepin IC50/ProTide IC50: (4)
HL-60 (TdT negative); HL-60, 72 h
  IC50: 2.6 µM
K562 (TdT negative); K562, 72 h
  IC50: 0.21 µM
RL (CRL-2261); 72 h, CRL (RL, CRL-2261)
  IC50: 0.4 µM
RL (CRL-2261); CRL, Control (no inhibitor)
  IC50: 3.1 µM
RL (CRL-2261); CRL, IC50 with AK inhibitor
  (FD) fold difference compared to control: (1)
RL (CRL-2261); CRL, IC50 with EHNA
  (FD) fold difference compared to control: (2)
RL (CRL-2261); CRL, IC50 with NBTI
  (FD) fold difference compared to control: (1)
RL (CRL-2261); [5]
  IC50: 2.8 µM
RL (CRL-2261); [6]
  IC50: 5.2 µM
RL (CRL-2261); [7]
  IC50: 2.6 µM
K562; K562, 72 h
  IC50: 0.1 to 5 µM
MiaPaCa-2; MIA PaCa-2, 72 h
  IC50: 0.1 to 5 µM
HT29; HT-29, 72 h
  IC50: 5 to 15 µM
HEL92.1.7; HEL 92.1.7, 72 h
  IC50: 0.1 to 5 µM
MCF7; MCF7, 72 h
  IC50: 0.1 to 5 µM
HL-60; HL-60, 72 h
  IC50: 0.1 to 5 µM

## Nc1ncnc2c1ncn2[C@@H]1O[C@H](COP(=O)(NCC(=O)OCc2ccccc2)Oc2ccccc2)C[C@H]1O (stereo partly drawn) [C, Benzyl 2-(((((2S,4R,5R)-5-(6-amino-9H-purin-9-yl)-4-hydroxytetrahydrofuran-2-yl)methoxy)(phenoxy)phosphoryl)amino)acetate]
K562; K562, 72 h
  IC50: 5 to 15 µM
  Emax: 100%
MiaPaCa-2; MIA PaCa-2, 72 h
  IC50: 5 to 15 µM
  Emax: 106%
HT29; HT-29, 72 h
  IC50: 15 to 100 µM
  Emax: 99%
HEL92.1.7; HEL 92.1.7, 72 h
  IC50: 0.1 to 5 µM
  Emax: 99%
MCF7; MCF7, 72 h
  IC50: 0.1 to 5 µM
  Emax: 102%
HL-60; HL-60, 72 h
  IC50: 5 to 15 µM
  Emax: 100%

## C[C@H](NP(=O)(OC[C@@H]1CC(O)[C@H](n2cnc3c(N)ncnc32)O1)Oc1ccccc1)C(=O)OCc1ccccc1 (stereo partly drawn) [Compound A, 3′-deoxyadenosine-5′-O-[phenyl(benzyloxy-L-alaninyl)] phosphate]
[1]; CEM (TdT+ve)
  (FD) fold difference compared to Cordycepin = Cordycepin IC50/ProTide IC50: (22)
[1]; CEM, IC50 with AK inhibitor
  (FD) fold difference compared to control: (3)
[1]; CEM, IC50 with EHNA
  (FD) fold difference compared to control: (2.2)
[1]; CEM, IC50 with NBTI
  (FD) fold difference compared to control: (1)
[1]; 72 h, CEM (TdT+ve), 72 hours
  IC50: 0.87 µM
[1]; CEM, Control (no inhibitor)
  IC50: 1.4 µM
[1]; [2]
  IC50: 3.6 µM
[1]; [3]
  IC50: 3.1 µM
[1]; [4]
  IC50: 2 µM
HL-60 (TdT negative)
  (FD) fold difference compared to Cordycepin = Cordycepin IC50/ProTide IC50: (3)
HL-60 (TdT negative); HL-60, 72 h
  IC50: 4.6 µM
K562 (TdT negative); K562, 72 h
  IC50: 2.4 µM
K562 (TdT negative); K562
  (FD) fold difference compared to Cordycepin = Cordycepin IC50/ProTide IC50: (5)
RL (CRL-2261); 72 h, CRL (RL, CRL-2261)
  IC50: 2.1 µM
RL (CRL-2261); CRL (RL, CRL-2261)
  (FD) fold difference compared to Cordycepin = Cordycepin IC50/ProTide IC50: (12)
RL (CRL-2261); CRL, Control (no inhibitor)
  IC50: 3.6 µM
RL (CRL-2261); CRL, IC50 with AK inhibitor
  (FD) fold difference compared to control: (3)
RL (CRL-2261); CRL, IC50 with EHNA
  (FD) fold difference compared to control: (1)
RL (CRL-2261); CRL, IC50 with NBTI
  (FD) fold difference compared to control: (1)
RL (CRL-2261); [5]
  IC50: 10.2 µM
RL (CRL-2261); [6]
  IC50: 2.9 µM
RL (CRL-2261); [7]
  IC50: 2.6 µM
K562; K562, 72 h
  IC50: 0.1 to 5 µM
  Emax: 96%
MiaPaCa-2; MIA PaCa-2, 72 h
  IC50: 5 to 15 µM
  Emax: 96%
HT29; HT-29, 72 h
  IC50: 5 to 15 µM
  Emax: 93%
HEL92.1.7; HEL 92.1.7, 72 h
  IC50: 5 to 15 µM
  Emax: 100%
MCF7; MCF7, 72 h
  IC50: 0.1 to 5 µM
  Emax: 99%
HL-60; HL-60, 72 h
  IC50: 5 to 15 µM
  Emax: 99%

## Nc1ncnc2c1ncn2[C@@H]1O[C@H](CO)C[C@H]1O [Cordycepin, 3′-deoxyadenosine, reference compound]
[1]; CEM, IC50 with AK inhibitor
  (FD) fold difference compared to control: (3)
[1]; CEM, IC50 with NBTI
  (FD) fold difference compared to control: (5)
[1]; 72 h, CEM (TdT+ve), 72 hours, read-out: IC50
  IC50: 19.5 µM
[1]; CEM, Control (no inhibitor), read-out: IC50
  IC50: 11.5 µM
[1]; CEM, with AK (adenosine kinase inhibitor A-134974, 1 μM), read-out: IC50
  IC50: 29.2 µM
[1]; CEM, with EHNA 1 μM (adenosine deaminase blocker), read-out: IC50
  IC50: 0.7 µM
[1]; CEM, with NBTI 10 μM (nucleoside transporter blocker), read-out: IC50
  IC50: 57.7 µM
HL-60 (TdT negative); HL-60, 72 hours, read-out: IC50
  IC50: 11.4 µM
K562 (TdT negative); K562, 72 hours, read-out: IC50
  IC50: 10.9 µM
RL (CRL-2261); 72 h, CRL (RL, CRL-2261), 72 hours, read-out: IC50
  IC50: 24.5 µM
RL (CRL-2261); CRL, Control (no inhibitor), read-out: IC50
  IC50: 7.3 µM
RL (CRL-2261); CRL, with AK (adenosine kinase inhibitor A-134974, 1 μM), read-out: IC50
  IC50: 28.6 µM
RL (CRL-2261); CRL, with EHNA 1 μM (adenosine deaminase blocker), read-out: IC50
  IC50: 13.2 µM
RL (CRL-2261); CRL, with NBTI 10 μM (nucleoside transporter blocker), read-out: IC50
  IC50: 17.9 µM
K562; K562, 72 hr
  IC50: 15 to 100 µM
  Emax: 78%
MiaPaCa-2; MIA PaCa-2, MiaPaCa-2, 72 hr
  IC50: > 100 µM
  Emax: 35%
HT29; HT-29, HT29, 72 hr
  IC50: > 100 µM
  Emax: 44%
HEL92.1.7; HEL 92.1.7, HEL92.1.7, 72 hr
  IC50: 15 to 100 µM
  Emax: 88%
MCF7; MCF7, 72 hr
  IC50: > 100 µM
  Emax: 77%
HL-60; HL-60, 72 hr
  IC50: > 100 µM
  Emax: 61%
